Tests used:
C2C12 cells [1] = assay: Differentiation of myoblasts into myotubes (Giemsa stain, fusion index); type: cell-based, mouse
Protocol: The medium was changed every 2 days and the cells were cultured at 37° C. The medium of the cells was removed and the cells were washed with PBS. After washing, a 1:1 volume ratio of methanol:PBS was treated and then fixed for 2 minutes. Additionally, a 2:1 volume ratio of methanol:PBS reagent was added, followed by further fixation for 2 minutes. After 2 minutes, 0.04% Giemsa reagent was added, allowed to stand for 30 minutes, washed with PBS after 30 minutes, and then the appearance of the cells was observed under a microscope, and three photos of the cells were taken (300×). In the photographs taken, the number of fused nuclei in the myotube cells was counted, the total number of nuclei was counted, and the number of fused nuclei was divided by the total number of nuclei to calculate % value.

C2C12 cells [2] = assay: Myoblast proliferation verification (MTT assay) in C2C12 cells; type: cell-based, mouse; details: for increased proliferation of cells compared to untreated cells: isolated final compounds, 0.5 ng/ml, 1 day, MTT (FIG. 7a)
Protocol: C2C12 cells, a mouse myoblast cell line, were cultured in Dulbecco's Modified Eagle's Medium (DMEM) containing 10% Fetal bovine serum (FBS) and 1% Penicillin/streptomycin (P/S).
To verify cell proliferation, the cell culture medium was removed and the cells was washed with DMEM, and then 500 μl of MTT reagent (0.5 mg/ml) dissolved in phosphate buffered saline (PBS) was added to each well and left for 1 hour at 37° C. The reaction solution was removed and 1000 μl of dimethyl sulfoxide (DMSO) was added to each well. Purple formazan crystals were completely dissolved in DMSO and absorbance was measured at 540 nm.

C57BL/6 mice = assay: Muscle regeneration effect in mice with or without cardiotoxin (CTX) injection into gastrocnemius muscle; type: in vivo, mouse
Protocol: In order to observe the muscle regeneration effect according to the treatment of hot water extract of licorice or the final substance liquiritigenin, the mice were ingested with licorice hot water extract or liquiritigenin and Cardiotoxin (CTX) was/was not injected into the muscle and then the morphology and regeneration of the muscles were observed. C57BL/6 mice were ingested with licorice hot water extract (100 mg/kg) or liquiritigenin (15 mg/kg) and […] cardiotoxin was injected into the gastrocnemius muscle. After cardiotoxin injection, licorice hot water extract or liquiritigenin was ingested every day, and muscle tissue was sampled 7 days after non-injection or injection of cardiotoxin. The diameter (μm) of the muscle secured 7 days after non-injection or injection of cardiotoxin was measured using an image J program.

[3] = isolated final compounds, 0.25 ng/ml (FIG. 7b)
[4] = purchased compounds, 0.25 ng/ml (FIG. 7c)
[5] = purchased compound, 15 mg/kg ingested daily

COc1c(/C=C/C(=O)c2ccc(O)cc2)ccc(O)c1O [licochalcone B, Licochalcone B]
myotube formation and fusion index increase (C2C12 cells [1]; [3]): 19% | myotube formation and fusion index increase (C2C12 cells [1]; purchased compounds (FIG. 7d)): 20% | increased proliferation of cells compared to untreated cells (C2C12 cells [2]): 11% | proliferation of cells increased compared to non-treated cells (C2C12 cells [2]; purchased compound, 1 ng/ml (FIG. 7c)): 11%

O=C1C[C@@H](c2ccc(O)cc2)Oc2cc(O)ccc21 [liquiritigenin, Liquiritigenin]
myotube formation and fusion index increase (C2C12 cells [1]; [3]): 13% | myotube formation and fusion index increase (C2C12 cells [1]; purchased compounds (FIG. 7d)): 20% | increased proliferation of cells compared to untreated cells (C2C12 cells [2]): 10% | proliferation of cells increased compared to non-treated cells (C2C12 cells [2]; [4]): 5% | diameter of the regenerated muscle (C57BL/6 mice; 15 mg/kg, CTX-injected, 7 days, not ingested 78±4): 91±3 μm | muscle diameter (muscle fiber size) (C57BL/6 mice; 15 mg/kg, second pair of values, apparently non-injected muscle, not ingested 124±4): 139±4 μm | body and gastrocnemius muscle weights vs non-treated controls (C57BL/6 mice; [5]): similar | muscle mass reductions vs non-treated controls (C57BL/6 mice; [5]): less

COc1c(/C=C/C(=O)c2ccc(O)c(O)c2)ccc(O)c1O [tetrahydroxymethoxychalcone, Tetrahydroxy methoxychalcone]
myotube formation and fusion index increase (C2C12 cells [1]; [3]): 28% | myotube formation and fusion index increase (C2C12 cells [1]; purchased compounds (FIG. 7d)): 23% | increased proliferation of cells compared to untreated cells (C2C12 cells [2]): 8% | proliferation of cells increased compared to non-treated cells (C2C12 cells [2]; [4]): 5%

Reference: US12257280B2, “Composition for preventing or treating muscular diseases, containing, as active ingredient, Glycyrrhiza uralensis extract or compound isolated therefrom” (NEO CREMAR CO., LTD., priority 2019, dated 2025)
